From patent US4371537A, “Sulfur-substituted phenoxypyridines having antiviral activity” (The Dow Chemical Company, priority 1981, dated 1983)
In brackets after ≈: the same amount, converted by molar mass.

How the values were obtained:
[1] = Cytotoxicity in tissue culture testing (HeLa monolayers); type: cell-based; details: human; HeLa cells; observed at 48 and 72 hours post-treatment; read-out: Cytotoxicity: concentration of the compound found to be toxic to the cell
Protocol: (§1) Monolayered HeLa cells in 16 millimeter (mm) tissue culture dishes were treated with 1 ml of culture medium (Eagles medium supplemented with fetal calf serum) containing subject compound at an appropriate concentration or containing no compound at all. Culture media such as those described herein are more fully described in standard texts, as for example, Kuchler's Biochemical Methods in Cell Culture and Virology, Dowden, Hutchinson and Ross, Inc., Stroudsberg, PA (1977). Following treatment, cells were challenged with 0.05 ml of rhinovirus type 1A (RV-1A), rhinovirus type 2 (RV-2) or Coxsackie A21 virus (Cox A21) in culture medium. Some of the compounds were also tested against rhinovirus type 5 (RV-5), rhinovirus type 8 (RV-8) or rhinovirus type 64 (RV-64). Cell controls received no viruses.
^1 Cytotoxicity figures represent the concentration of the compound, […]

[2] = system: rhinovirus type 1A (RV-1A); assay: Tissue culture testing, rhinovirus type 1A in HeLa cells; type: cell-based; details: Enterovirus, 48 and 72 hours, NA = not active at the standard test conditions, read-out: RV-1A: lowest concentration of the compound necessary to cause a 50 percent reduction in cytopathic effect
Protocol: as §1
(§2) ^2 Lowest concentration of the compound (μg/ml) necessary to cause

[3] = system: rhinovirus type 2 (RV-2); assay: Tissue culture testing, rhinovirus type 2 in HeLa cells; type: cell-based; details: Enterovirus, 48 and 72 hours, NA = not active at the standard test conditions, read-out: RV-2: lowest concentration of the compound necessary to cause a 50 percent reduction in cytopathic effect
Protocol: as §1, §2

[4] = system: Coxsackie A21 virus (Cox A21); assay: Tissue culture testing, Coxsackie A21 virus in HeLa cells; type: cell-based; details: 48 and 72 hours, NA = not active at the standard test conditions, read-out: Cox A21: lowest concentration of the compound necessary to cause a 50 percent reduction in cytopathic effect
Protocol: as §1, §2

[5] = system: rhinovirus type 64 (RV-64); assay: Tissue culture testing, rhinovirus type 64 in HeLa cells; type: cell-based; details: Enterovirus, 48 and 72 hours, NA = not active at the standard test conditions, read-out: RV-64: lowest concentration of the compound necessary to cause a 50 percent reduction in cytopathic effect
Protocol: as §1, §2

[6] = system: Cox A21; assay: Single Oral Dose test in mice challenged IP with Cox A21; type: in vivo, Swiss male mice; details: >3.84 significant (95% confidence level)
Protocol: In addition, some of the compounds were tested in animals utilizing the following procedure, hereinafter referred to as the "Single Oral Dose" test. Swiss male mice, 8-12 grams in weight were challenged intraperitoneally (IP) with 0.2 ml of a normally lethal dose, i.e., a virus dose sufficient to cause […].80-100% mortality in infected animals within 10 days of challenge of Cox A21, in phosphate buffered saline containing 1% heat inactivated fetal calf serum. Three hours later mice were treated orally (P.O.) with 0.2 ml of compound suspended in 0.5% hydroxypropyl methylcellulose (Methocel) or with 0.2 ml of 0.5% Methocel containing no compound. […] Mice were observed daily for 7-10 days post-challenge and deaths recorded. A modified Mantel-Haenzel combined chi-square procedure was used to determine significant difference between virus control and treated groups. Chi-square values greater than 3.84 are considered significant (95% confidence level) in this test.

[7] = system: Hanks Untyped; assay: Inhibition of cytopathic effect in WI-38 cell culture tubes, Hanks Untyped; type: cell-based, rhinovirus; details: Enterovirus; 12.5 μg/ml; WI-38 cells; read-out: Inhibition grade, Hanks Untyped
Protocol: (§3) The test compound was dissolved in an appropriate solvent (generally dimethyl sulfoxide) and incubated at 56° C. for at least 15 minutes and this solution was then used to prepare various test solutions having the desired concentration of test compound in preheated WI maintenance medium (49% Eagles, 49% medium 199, 2% fetal calf serum and antibiotics).
(§4) Triplicate cell culture tubes (WI-38 human embryonic lung cell culture tubes) were fed with 1 ml of medium containing the compound at specified concentrations and inoculated with 3-300 TCID50 (3-300 times the tissue culture infective dose 50, i.e., the dose required to infect 50% of the cell cultures tested). Simultaneous viral titrations were performed. The tissue cultures were supplemented with fresh medium when necessary (around 3-4 days) until viral titrations were completed.
(§5) The cell culture tubes were examined dialy for cytopathic effect. […] Comparisons were made at that time with the percentage of cell sheet destruction in tubes containing virus compound mixtures. Observed differences of 75% or more were graded "+", 74-50% as "±", and less than 50% as "-" inhibition.

[8] = system: Rhinovirus Type 4; assay: Inhibition of cytopathic effect in WI-38 cell culture tubes, rhinovirus type 4; type: cell-based; details: Enterovirus; 12.5 μg/ml; WI-38 cells; read-out: Inhibition grade, Rhinovirus Type 4
Protocol: as §3, §4, §5

[9] = system: Rhinovirus Type 6; assay: Inhibition of cytopathic effect in WI-38 cell culture tubes, rhinovirus type 6; type: cell-based; details: Enterovirus; 12.5 μg/ml; WI-38 cells; read-out: Inhibition grade, Rhinovirus Type 6
Protocol: as §3, §4, §5

[10] = system: Rhinovirus Type 8; assay: Inhibition of cytopathic effect in WI-38 cell culture tubes, rhinovirus type 8; type: cell-based; details: Enterovirus; 12.5 μg/ml; WI-38 cells; read-out: Inhibition grade, Rhinovirus Type 8
Protocol: as §3, §4, §5

[11] = system: Rhinovirus Type 10; assay: Inhibition of cytopathic effect in WI-38 cell culture tubes, rhinovirus type 10; type: cell-based; details: Enterovirus; 12.5 μg/ml; WI-38 cells; read-out: Inhibition grade, Rhinovirus Type 10
Protocol: as §3, §4, §5

[12] = system: Rhinovirus Type 13; assay: Inhibition of cytopathic effect in WI-38 cell culture tubes, rhinovirus type 13; type: cell-based; details: Enterovirus; 12.5 μg/ml; WI-38 cells; read-out: Inhibition grade, Rhinovirus Type 13
Protocol: as §3, §4, §5

[13] = system: Rhinovirus Type 17; assay: Inhibition of cytopathic effect in WI-38 cell culture tubes, rhinovirus type 17; type: cell-based; details: Enterovirus; 12.5 μg/ml; WI-38 cells; read-out: Inhibition grade, Rhinovirus Type 17
Protocol: as §3, §4, §5

[14] = system: Rhinovirus Type 19; assay: Inhibition of cytopathic effect in WI-38 cell culture tubes, rhinovirus type 19; type: cell-based; details: Enterovirus; 12.5 μg/ml; WI-38 cells; read-out: Inhibition grade, Rhinovirus Type 19
Protocol: as §3, §4, §5

[15] = system: Rhinovirus Type 21; assay: Inhibition of cytopathic effect in WI-38 cell culture tubes, rhinovirus type 21; type: cell-based; details: Enterovirus; 12.5 μg/ml; WI-38 cells; read-out: Inhibition grade, Rhinovirus Type 21
Protocol: as §3, §4, §5

[16] = system: Rhinovirus Type 29; assay: Inhibition of cytopathic effect in WI-38 cell culture tubes, rhinovirus type 29; type: cell-based; details: Enterovirus; 12.5 μg/ml; WI-38 cells; read-out: Inhibition grade, Rhinovirus Type 29
Protocol: as §3, §4, §5

[17] = system: Rhinovirus Type 39; assay: Inhibition of cytopathic effect in WI-38 cell culture tubes, rhinovirus type 39; type: cell-based; details: Enterovirus; 12.5 μg/ml; WI-38 cells; read-out: Inhibition grade, Rhinovirus Type 39
Protocol: as §3, §4, §5

[18] = system: Rhinovirus Type 56; assay: Inhibition of cytopathic effect in WI-38 cell culture tubes, rhinovirus type 56; type: cell-based; details: Enterovirus; 12.5 μg/ml; WI-38 cells; read-out: Inhibition grade, Rhinovirus Type 56
Protocol: as §3, §4, §5

[19] = system: Rhinovirus Type 58; assay: Inhibition of cytopathic effect in WI-38 cell culture tubes, rhinovirus type 58; type: cell-based; details: Enterovirus; 12.5 μg/ml; WI-38 cells; read-out: Inhibition grade, Rhinovirus Type 58
Protocol: as §3, §4, §5

[20] = system: Rhinovirus Type 59; assay: Inhibition of cytopathic effect in WI-38 cell culture tubes, rhinovirus type 59; type: cell-based; details: Enterovirus; 12.5 μg/ml; WI-38 cells; read-out: Inhibition grade, Rhinovirus Type 59
Protocol: as §3, §4, §5

[21] = system: Rhinovirus Type 60; assay: Inhibition of cytopathic effect in WI-38 cell culture tubes, rhinovirus type 60; type: cell-based; details: Enterovirus; 12.5 μg/ml; WI-38 cells; read-out: Inhibition grade, Rhinovirus Type 60
Protocol: as §3, §4, §5

[22] = system: Rhinovirus Type 64; assay: Inhibition of cytopathic effect in WI-38 cell culture tubes, rhinovirus type 64; type: cell-based; details: Enterovirus; 12.5 μg/ml; WI-38 cells; read-out: Inhibition grade, Rhinovirus Type 64
Protocol: as §3, §4, §5

[23] = system: Rhinovirus Type 68; assay: Inhibition of cytopathic effect in WI-38 cell culture tubes, rhinovirus type 68; type: cell-based; details: Enterovirus; 12.5 μg/ml; WI-38 cells; read-out: Inhibition grade, Rhinovirus Type 68
Protocol: as §3, §4, §5

[24] = system: Rhinovirus Type 74; assay: Inhibition of cytopathic effect in WI-38 cell culture tubes, rhinovirus type 74; type: cell-based; details: Enterovirus; 12.5 μg/ml; WI-38 cells; read-out: Inhibition grade, Rhinovirus Type 74
Protocol: as §3, §4, §5

[25] = system: Rhinovirus Type 75; assay: Inhibition of cytopathic effect in WI-38 cell culture tubes, rhinovirus type 75; type: cell-based; details: Enterovirus; 12.5 μg/ml; WI-38 cells; read-out: Inhibition grade, Rhinovirus Type 75
Protocol: as §3, §4, §5

[26] = system: Rhinovirus Type 81; assay: Inhibition of cytopathic effect in WI-38 cell culture tubes, rhinovirus type 81; type: cell-based; details: Enterovirus; 12.5 μg/ml; WI-38 cells; read-out: Inhibition grade, Rhinovirus Type 81
Protocol: as §3, §4, §5

[27] = system: rhinovirus type 8 (RV-8); assay: Tissue culture testing, rhinovirus type 8 in HeLa cells; type: cell-based; details: Enterovirus, 48 and 72 hours, NA = not active at the standard test conditions, read-out: RV-8: lowest concentration of the compound necessary to cause a 50 percent reduction in cytopathic effect
Protocol: as §1, §2

[28] = system: Coxsackie A21 virus; assay: Continuous Oral Feeding test in mice challenged IP with Coxsackie A21 virus; type: in vivo; details: po, 0.06 % in diet, 240 h
Protocol: Some of the compounds were also tested in animals utilizing the following procedure, hereainafter referred to as the "Continuous Oral Feeding" test. Coxsackie A21 virus grown on HeLa cells was administered at a concentration that produces 80 to 100% deaths in mice weighing 8 to 12 grams within 10 days, when the mice are injected (IP) with 0.2 ml of virus preparation. Mice were placed on diets containing test compound dispersed in plain commercially available rodent mash chow at a concentration of 0.06% (weight percent) on day 0. On day 1 the mice were challenged with the virus preparation, 0.2 ml/mouse, (IP). Deaths in both control and experimental groups were recorded for the 10 days and the results analyzed by a chi-square (.chi.^2) test. Chi-square values greater than 3.84 indicate the compound is active (95% confidence level).

CS(=O)(=O)c1ccc(Oc2ccc(Cl)cc2)nc1 [Example 32, 2-(4-chlorophenoxy)-5-(methylsulfonyl)pyridine]
MCC [1]: 50 µg/mL
EC50 [2]: 1.25 µg/mL (≈ 4.41 µM)
EC50 [3]: 2.5 µg/mL (≈ 8.81 µM)
EC50 [4]: 3.12 µg/mL (≈ 11 µM)
EC50 [5]: 1.25 µg/mL (≈ 4.41 µM)
Single Oral Dose X^2 (chi-square, deaths vs virus control) ([6]; 200 mg/kg P.O. 3 h after IP challenge): 52.866
inhibition at 12.5 µg/mL [7]: ≥ 75%
inhibition at 12.5 µg/mL [8]: ≥ 75%
inhibition at 12.5 µg/mL [9]: 50 to 74%
inhibition at 12.5 µg/mL [10]: < 50%
inhibition at 12.5 µg/mL [11]: ≥ 75%
inhibition at 12.5 µg/mL [12]: < 50%
inhibition at 12.5 µg/mL [13]: ≥ 75%
inhibition at 12.5 µg/mL [14]: ≥ 75%
inhibition at 12.5 µg/mL [15]: 50 to 74%
inhibition at 12.5 µg/mL [16]: ≥ 75%
inhibition at 12.5 µg/mL [17]: < 50%
inhibition at 12.5 µg/mL [18]: ≥ 75%
inhibition at 12.5 µg/mL [19]: ≥ 75%
inhibition at 12.5 µg/mL [20]: ≥ 75%
inhibition at 12.5 µg/mL [21]: ≥ 75%
inhibition at 12.5 µg/mL [22]: ≥ 75%
inhibition at 12.5 µg/mL [23]: ≥ 75%
inhibition at 12.5 µg/mL [24]: ≥ 75%
inhibition at 12.5 µg/mL [25]: < 50%
inhibition at 12.5 µg/mL [26]: 50 to 74%

CCS(=O)(=O)c1ccc(Oc2ccc(Oc3ccccc3)cc2)nc1 [Example 44, 5-(ethylsulfonyl)-2-(4-phenoxyphenoxy)pyridine]
MCC [1]: 6.25 µg/mL
EC50 [2]: 6.25 µg/mL (≈ 17.6 µM)
EC50 [3]: 3.12 µg/mL (≈ 8.79 µM)
EC50 [4]: 3.12 µg/mL (≈ 8.79 µM)
EC50 [27]: 6.25 µg/mL (≈ 17.6 µM)
Single Oral Dose X^2 (chi-square, deaths vs virus control) ([6]; 600 mg/kg P.O. 3 h after IP challenge): 0.196
Continuous Oral Feeding X^2 (chi-square, deaths vs control) [28]: 1.58
